Test results: patent US9504729B2, “Antiangiogenic small molecules and methods of use” (The United States of America, as represented by the …, priority 2009, dated 2016)

Columns and labels:
[1] = target: KDR(VEGFR2) (Homo sapiens, UniProt P35968); test: SelectScreen kinase activity profiling, KDR(VEGFR2); type: biochemical; parameters: % Inhibition / Mean % Inhibition: concentration or dose not given beside the values; details: KDR(VEGFR2); for Mean % Inhibition: mean of two independent trials
[2] = target: FGFR1 (Homo sapiens, UniProt P11362); test: SelectScreen kinase activity profiling, FGFR1; type: biochemical; parameters: concentration or dose not given beside the values; details: for Mean % Inhibition: mean of two independent trials
FGFR1, sequence (P11362 398-822 limits assumed): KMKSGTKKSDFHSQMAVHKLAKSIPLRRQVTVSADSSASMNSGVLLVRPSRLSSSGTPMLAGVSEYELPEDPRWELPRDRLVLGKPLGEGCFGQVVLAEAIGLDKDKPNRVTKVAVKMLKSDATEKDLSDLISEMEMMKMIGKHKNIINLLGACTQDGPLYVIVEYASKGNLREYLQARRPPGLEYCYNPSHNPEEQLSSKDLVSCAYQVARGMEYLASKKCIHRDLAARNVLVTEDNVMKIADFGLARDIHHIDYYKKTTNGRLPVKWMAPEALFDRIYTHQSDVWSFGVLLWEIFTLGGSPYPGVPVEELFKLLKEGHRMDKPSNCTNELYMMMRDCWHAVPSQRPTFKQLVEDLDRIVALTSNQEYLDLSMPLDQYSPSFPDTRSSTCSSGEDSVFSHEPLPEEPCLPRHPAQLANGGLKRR
Source text: To characterize the RTK inhibitory activity of the antiangiogenic SMs described herein, 36 compounds were chosen and screened using Invitrogen's SelectScreen® kinase activity profiling service (described on-line at tools.invitrogen.com/content.cfm?pageid=10413#selection). VEGFR1 and FGFR2 RTK inhibitory activities were studied. […] Overall, a small minority of the SMs tested had any substantial kinase inhibitory activity. This observation supports a mechanism of antiangiogenic action other than RTK inhibition for most of the SMs described herein.

[3] = first of two independent trials
[4] = second of two independent trials

KDR(VEGFR2), sequence (P35968 20-1356): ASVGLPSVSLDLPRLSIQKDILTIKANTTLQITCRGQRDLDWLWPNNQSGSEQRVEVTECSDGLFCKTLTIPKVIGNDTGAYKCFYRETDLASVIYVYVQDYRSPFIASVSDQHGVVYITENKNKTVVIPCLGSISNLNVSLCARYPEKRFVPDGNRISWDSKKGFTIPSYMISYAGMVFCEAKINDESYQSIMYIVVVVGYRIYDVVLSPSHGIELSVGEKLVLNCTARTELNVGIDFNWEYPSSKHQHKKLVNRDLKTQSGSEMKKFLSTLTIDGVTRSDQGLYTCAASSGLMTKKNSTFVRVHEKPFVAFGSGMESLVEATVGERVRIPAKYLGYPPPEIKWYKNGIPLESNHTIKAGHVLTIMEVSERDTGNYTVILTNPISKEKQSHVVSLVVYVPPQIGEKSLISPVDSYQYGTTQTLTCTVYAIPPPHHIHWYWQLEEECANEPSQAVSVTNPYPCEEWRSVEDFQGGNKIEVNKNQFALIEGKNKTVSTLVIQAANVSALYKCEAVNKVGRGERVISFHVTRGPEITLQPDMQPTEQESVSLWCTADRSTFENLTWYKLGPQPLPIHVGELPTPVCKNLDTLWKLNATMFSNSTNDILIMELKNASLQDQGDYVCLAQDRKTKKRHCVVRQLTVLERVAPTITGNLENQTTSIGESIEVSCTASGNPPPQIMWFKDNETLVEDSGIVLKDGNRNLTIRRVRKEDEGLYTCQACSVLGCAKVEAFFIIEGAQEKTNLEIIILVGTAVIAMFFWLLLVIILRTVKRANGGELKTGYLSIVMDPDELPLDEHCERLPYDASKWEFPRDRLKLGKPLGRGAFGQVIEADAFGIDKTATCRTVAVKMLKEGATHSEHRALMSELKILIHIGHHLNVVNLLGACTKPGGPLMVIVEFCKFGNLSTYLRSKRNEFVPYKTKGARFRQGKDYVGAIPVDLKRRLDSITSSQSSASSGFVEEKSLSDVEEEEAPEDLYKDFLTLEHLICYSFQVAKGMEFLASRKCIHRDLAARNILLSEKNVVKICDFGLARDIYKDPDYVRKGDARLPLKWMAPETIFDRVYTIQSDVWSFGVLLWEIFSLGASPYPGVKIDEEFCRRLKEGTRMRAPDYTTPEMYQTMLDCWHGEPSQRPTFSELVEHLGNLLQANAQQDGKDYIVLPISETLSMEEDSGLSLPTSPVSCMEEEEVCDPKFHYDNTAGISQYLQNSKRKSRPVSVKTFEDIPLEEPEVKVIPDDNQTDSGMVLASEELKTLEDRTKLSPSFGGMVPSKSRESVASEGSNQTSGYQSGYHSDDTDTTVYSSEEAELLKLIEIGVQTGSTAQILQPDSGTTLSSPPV

Row | Structure (SMILES) | % Inhibition [1, 3] | Mean % Inhibition [1] | % Inhibition [1, 4] | % Inhibition [2, 3] | Mean % Inhibition [2] | % Inhibition [2, 4]
1 | CCC(=O)OCN1C(=O)C=CC1=O [compound 19630] | 90% | 90% | 91% | 2% | 0% | −2%
2 | O=C1C(=Cc2ccccc2)C(NC2CCCCC2)c2ccccc21 (stereo not drawn) [compound 150117] | 28% | 26% | 24% | 2% | 5% | 7%
3 | COc1ccc(CC2C(=O)NC(C)C(=O)N(C)C3Cc4ccc(cc4)Oc4cc(ccc4O)CC(C(=O)NC(C)C(=O)NC(C)C(=O)N2C)N(C)C3=O)cc1 (stereo not drawn) [compound 259969] | 0% | 5% | 9% | 3% | 3% | 3%
4 | COc1cc2cc(c1Cl)N(C)C(=O)CC(OC(=O)C(C)C)C1(C)OC1C(C)C1CC(O)(NC(=O)O1)C(OC)/C=C/C=C(\C)C2 (stereo not drawn) [compound 292222] | 8% | 7% | 7% | 2% | 3% | 5%
5 | CC1CCN(CC[S-])CC1.O.O.[Cl][Pt+] [compound 292596] | 9% | 14% | 18% | 4% | 4% | 4%
